Results as given in US10392368B2, “Pyrazolo and triazolo bicyclic compounds as JAK kinase inhibitors” (THERAVANCE BIOPHARMA R&D IP, LLC, priority 2017, dated 2019).
Like-named read-outs stand apart in the source and are kept apart here.

Columns and labels:
[1] = tested on: IL-2 stimulated pSTAT5 in Tall-1 T cells; experiment: Cellular JAK3 potency assay: inhibition of IL-2 stimulated pSTAT5 in Tall-1 T cells; type: cell-based, human; details: for IC50: Homo sapiens, read-out: Tall-1 (pIC50) (converted)
Outline: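 Inhibition of IL-2-induced pSTAT5 was quantified by AlphaLisa in Tall-1 cell lysates. Compound exposure lasted 1 h before 30 min stimulation with 300 ng/ml IL-2 final.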

JAK2 = biological target: T1, JAK2 (Homo sapiens, UniProt O60674); experiment: Biochemical JAK2 kinase assay (LanthaScreen); details: for Ki: read-out: JAK 2 (pKi) (converted)
T1 construct: GST; purchased Life Technologies
T1 sequence (O60674 whole entry): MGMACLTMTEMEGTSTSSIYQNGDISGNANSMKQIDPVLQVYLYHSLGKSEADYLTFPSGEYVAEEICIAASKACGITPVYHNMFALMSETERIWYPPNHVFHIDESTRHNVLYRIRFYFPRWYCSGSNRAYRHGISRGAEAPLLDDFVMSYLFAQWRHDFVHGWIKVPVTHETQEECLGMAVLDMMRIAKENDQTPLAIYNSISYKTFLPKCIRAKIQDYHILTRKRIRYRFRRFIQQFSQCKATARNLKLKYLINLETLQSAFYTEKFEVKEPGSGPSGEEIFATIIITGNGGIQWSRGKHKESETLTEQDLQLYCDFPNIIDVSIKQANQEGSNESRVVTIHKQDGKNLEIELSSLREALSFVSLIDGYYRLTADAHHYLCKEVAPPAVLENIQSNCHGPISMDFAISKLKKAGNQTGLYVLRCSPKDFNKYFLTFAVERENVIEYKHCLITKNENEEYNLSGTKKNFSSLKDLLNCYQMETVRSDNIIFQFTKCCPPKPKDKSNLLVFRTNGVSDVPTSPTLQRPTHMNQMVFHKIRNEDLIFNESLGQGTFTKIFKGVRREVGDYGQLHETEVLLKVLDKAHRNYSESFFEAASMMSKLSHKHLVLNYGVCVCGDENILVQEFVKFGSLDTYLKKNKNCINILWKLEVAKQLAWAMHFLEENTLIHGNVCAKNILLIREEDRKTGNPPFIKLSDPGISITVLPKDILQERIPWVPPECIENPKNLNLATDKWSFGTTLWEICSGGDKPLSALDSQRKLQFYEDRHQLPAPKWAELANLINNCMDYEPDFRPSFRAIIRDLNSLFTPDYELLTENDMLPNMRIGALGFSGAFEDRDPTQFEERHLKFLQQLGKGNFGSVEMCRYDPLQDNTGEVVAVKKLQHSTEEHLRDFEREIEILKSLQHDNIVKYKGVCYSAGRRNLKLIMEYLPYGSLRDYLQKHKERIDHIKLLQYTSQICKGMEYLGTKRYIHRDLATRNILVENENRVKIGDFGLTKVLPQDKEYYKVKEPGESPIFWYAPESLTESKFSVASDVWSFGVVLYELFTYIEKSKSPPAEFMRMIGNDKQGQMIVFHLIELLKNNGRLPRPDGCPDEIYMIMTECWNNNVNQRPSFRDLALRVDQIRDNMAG
Experimental: (§1) A panel of four LanthaScreen JAK biochemical assays (JAK1, 2, 3 and Tyk2) were carried in a common kinase reaction buffer (50 mM HEPES, pH 7.5, 0.01% Brij-35, 10 mM MgCl2, and 1 mM EGTA). Recombinant GST-tagged JAK enzymes and a GFP-tagged STAT1 peptide substrate were obtained from Life Technologies.
(§2) Serially or discretely diluted compounds were pre-incubated with each of the four JAK enzymes and the substrate in white 384-well microplates (Corning) at ambient temperature for 1 h. ATP was subsequently added to initiate the kinase reactions in 10 μL total volume, with 1% DMSO. […] Kinase reactions were allowed to proceed for 1 hour at ambient temperature before a 10 μL preparation of EDTA (10 mM final concentration) and Tb-anti-pSTAT1 (pTyr701) antibody (Life Technologies, 2 nM final concentration) in TR-FRET dilution buffer (Life Technologies) was added. The plates were allowed to incubate at ambient temperature for 1 h before being read on the EnVision reader (Perkin Elmer).
(§3) For dose-response analysis, percent inhibition data were plotted vs. compound concentrations, and IC50 values were determined from a 4-parameter robust fit model with the Prism software (GraphPad Software). Results were expressed as pIC50 (negative logarithm of IC50) and subsequently converted to pKi (negative logarithm of dissociation constant, Ki) using the Cheng-Prusoff equation.

Tyk2 = biological target: T2, Tyk2 (Homo sapiens, UniProt P29597); experiment: Biochemical Tyk2 kinase assay (LanthaScreen); details: for Ki: read-out: Tyk 2 (pKi) (converted)
T2 construct: GST; purchased Life Technologies
T2 sequence (P29597 whole entry): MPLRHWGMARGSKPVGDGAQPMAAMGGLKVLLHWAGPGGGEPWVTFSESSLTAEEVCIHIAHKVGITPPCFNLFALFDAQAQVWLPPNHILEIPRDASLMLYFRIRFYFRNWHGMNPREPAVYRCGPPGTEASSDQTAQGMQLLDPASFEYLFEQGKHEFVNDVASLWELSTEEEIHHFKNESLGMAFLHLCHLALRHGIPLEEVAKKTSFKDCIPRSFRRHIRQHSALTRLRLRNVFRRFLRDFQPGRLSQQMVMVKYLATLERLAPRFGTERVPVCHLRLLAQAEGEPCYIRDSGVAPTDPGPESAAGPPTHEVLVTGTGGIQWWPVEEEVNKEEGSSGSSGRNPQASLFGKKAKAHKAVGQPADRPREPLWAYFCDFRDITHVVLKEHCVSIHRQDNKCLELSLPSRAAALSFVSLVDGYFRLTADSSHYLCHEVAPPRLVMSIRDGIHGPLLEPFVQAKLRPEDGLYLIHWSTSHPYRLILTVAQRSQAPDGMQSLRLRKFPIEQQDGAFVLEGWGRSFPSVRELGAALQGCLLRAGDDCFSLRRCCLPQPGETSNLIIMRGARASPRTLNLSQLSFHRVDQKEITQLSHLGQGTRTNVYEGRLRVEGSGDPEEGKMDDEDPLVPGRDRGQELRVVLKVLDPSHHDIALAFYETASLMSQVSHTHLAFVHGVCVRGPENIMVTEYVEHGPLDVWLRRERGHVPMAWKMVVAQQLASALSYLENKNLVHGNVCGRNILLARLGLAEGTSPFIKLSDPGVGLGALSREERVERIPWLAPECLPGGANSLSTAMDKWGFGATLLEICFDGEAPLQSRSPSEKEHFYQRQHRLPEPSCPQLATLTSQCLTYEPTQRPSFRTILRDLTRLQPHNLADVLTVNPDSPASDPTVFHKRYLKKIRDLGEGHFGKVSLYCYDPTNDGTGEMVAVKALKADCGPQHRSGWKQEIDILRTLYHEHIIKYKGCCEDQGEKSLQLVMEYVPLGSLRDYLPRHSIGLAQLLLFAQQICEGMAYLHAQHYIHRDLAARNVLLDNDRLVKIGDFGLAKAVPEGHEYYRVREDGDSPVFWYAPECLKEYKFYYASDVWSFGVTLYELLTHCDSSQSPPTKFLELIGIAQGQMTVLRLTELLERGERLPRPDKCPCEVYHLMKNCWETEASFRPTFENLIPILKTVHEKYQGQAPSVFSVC
Experimental: as §1
as §2, with “Elmer). Emission ratio signals (520 nm/495 nm) were recorded and utilized to calculate the percent inhibition values based on DMSO and background controls.” for “Elmer).”
as §3

JAK3 = biological target: T3, JAK3 (Homo sapiens, UniProt P52333); experiment: Biochemical JAK3 kinase assay (LanthaScreen); set-up: GST; purchased Life Technologies; details: for Ki: read-out: JAK 3 (pKi) (converted)
T3 sequence (P52333 1-1124): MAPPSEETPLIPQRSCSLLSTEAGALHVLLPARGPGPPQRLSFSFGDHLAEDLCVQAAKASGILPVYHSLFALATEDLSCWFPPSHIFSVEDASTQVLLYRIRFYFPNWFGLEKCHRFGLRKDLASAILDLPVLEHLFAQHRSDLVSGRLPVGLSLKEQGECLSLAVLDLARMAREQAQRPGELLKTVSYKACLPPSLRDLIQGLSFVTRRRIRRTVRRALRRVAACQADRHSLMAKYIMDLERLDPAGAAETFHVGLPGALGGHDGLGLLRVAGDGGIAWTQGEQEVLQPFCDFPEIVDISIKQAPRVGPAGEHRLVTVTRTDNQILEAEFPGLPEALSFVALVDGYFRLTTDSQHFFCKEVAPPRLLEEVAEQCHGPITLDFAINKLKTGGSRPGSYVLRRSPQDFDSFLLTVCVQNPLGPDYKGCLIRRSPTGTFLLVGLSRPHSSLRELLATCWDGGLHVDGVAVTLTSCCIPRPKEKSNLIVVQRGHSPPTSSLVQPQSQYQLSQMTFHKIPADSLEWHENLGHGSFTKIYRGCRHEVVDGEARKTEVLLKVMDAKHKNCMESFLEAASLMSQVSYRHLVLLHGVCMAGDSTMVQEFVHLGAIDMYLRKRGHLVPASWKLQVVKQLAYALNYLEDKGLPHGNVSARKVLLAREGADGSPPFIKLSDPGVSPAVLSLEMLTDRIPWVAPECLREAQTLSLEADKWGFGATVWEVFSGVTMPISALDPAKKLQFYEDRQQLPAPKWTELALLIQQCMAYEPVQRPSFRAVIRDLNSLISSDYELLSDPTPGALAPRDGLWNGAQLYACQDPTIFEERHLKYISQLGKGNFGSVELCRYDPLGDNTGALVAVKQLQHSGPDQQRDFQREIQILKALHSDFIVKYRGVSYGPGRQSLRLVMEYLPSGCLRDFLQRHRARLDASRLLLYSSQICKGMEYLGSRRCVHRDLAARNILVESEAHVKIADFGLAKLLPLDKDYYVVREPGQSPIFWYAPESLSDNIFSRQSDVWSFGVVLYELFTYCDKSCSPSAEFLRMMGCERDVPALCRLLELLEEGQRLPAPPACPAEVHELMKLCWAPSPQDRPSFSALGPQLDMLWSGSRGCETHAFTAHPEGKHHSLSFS
Outline: (§4)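 GST-JAK + GFP-STAT1 peptide + cpd, 1 h preinc RT; ATP start, 1% DMSO, 1 h RT; stop 10 mM EDTA + 2 nM Tb-anti-pSTAT1; 1 h; TR-FRET 520/495. % inhib vs DMSO/background → IC50 (4-PL) → pKi (Cheng-Prusoff).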

JAK1 = biological target: T4, JAK1 (Homo sapiens, UniProt P23458); experiment: Biochemical JAK1 kinase assay (LanthaScreen); details: for Ki: read-out: JAK 1 (pKi) (converted)
T4 construct: GST; purchased Life Technologies
T4 sequence (P23458 whole entry): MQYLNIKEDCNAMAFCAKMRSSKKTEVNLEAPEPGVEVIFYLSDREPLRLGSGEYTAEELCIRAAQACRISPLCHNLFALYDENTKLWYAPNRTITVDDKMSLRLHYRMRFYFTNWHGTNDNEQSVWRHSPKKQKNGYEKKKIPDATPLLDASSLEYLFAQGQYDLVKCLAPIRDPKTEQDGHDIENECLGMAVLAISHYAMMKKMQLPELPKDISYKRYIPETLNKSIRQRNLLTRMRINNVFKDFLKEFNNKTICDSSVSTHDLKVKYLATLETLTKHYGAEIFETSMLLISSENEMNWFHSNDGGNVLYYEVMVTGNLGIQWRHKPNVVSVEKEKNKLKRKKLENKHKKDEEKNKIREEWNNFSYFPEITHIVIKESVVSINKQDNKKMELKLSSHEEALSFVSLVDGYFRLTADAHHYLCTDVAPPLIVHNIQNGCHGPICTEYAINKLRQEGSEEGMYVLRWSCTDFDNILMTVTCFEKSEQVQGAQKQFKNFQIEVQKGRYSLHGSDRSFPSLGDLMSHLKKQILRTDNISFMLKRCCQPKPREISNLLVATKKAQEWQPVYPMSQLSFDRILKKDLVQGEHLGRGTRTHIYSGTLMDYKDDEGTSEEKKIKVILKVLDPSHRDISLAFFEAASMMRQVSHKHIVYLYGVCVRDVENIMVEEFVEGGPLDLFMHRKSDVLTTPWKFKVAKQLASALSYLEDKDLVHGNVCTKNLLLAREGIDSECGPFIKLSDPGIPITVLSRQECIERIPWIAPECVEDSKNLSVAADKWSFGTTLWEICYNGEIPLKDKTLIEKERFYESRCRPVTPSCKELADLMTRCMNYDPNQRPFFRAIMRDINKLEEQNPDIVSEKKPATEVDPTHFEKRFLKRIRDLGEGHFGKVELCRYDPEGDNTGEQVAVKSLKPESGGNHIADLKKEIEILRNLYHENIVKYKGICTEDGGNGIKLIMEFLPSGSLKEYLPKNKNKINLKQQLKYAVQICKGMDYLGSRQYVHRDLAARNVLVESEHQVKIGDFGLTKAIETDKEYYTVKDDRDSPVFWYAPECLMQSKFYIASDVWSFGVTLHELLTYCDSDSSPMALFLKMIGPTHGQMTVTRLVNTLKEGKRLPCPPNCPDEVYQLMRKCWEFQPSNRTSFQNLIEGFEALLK
Outline: as §4

[2] = TALL-1, IL-2 stimulated pSTAT5 in Tall-1 T cells
[3] = selectivity: difference of pKi JAK3 and pKi JAK1
[4] = IL-2 stimulated pSTAT5 in Tall-1 T cells
[5] = IL-2 stimulated pSTAT5, Tall-1 T cells
[6] = selectivity JAK3 over JAK1, difference of pKi
[7] = TALL-1, IL-2 stimulated pSTAT5, Tall-1 T cells

| SMILES | IC50 [1, 2] [µM] | Ki (JAK2) [µM] | Ki (Tyk2) [µM] | Ki (JAK3) [µM] | JAK3 (pKi)-JAK1 (pKi) (JAK3; [3]) | Ki (JAK1) [µM] | Tall-1 (pIC50) [1, 4] | JAK 2 (pKi) (JAK2) | Tyk 2 (pKi) (Tyk2) | JAK 3 (pKi) (JAK3) | JAK 1 (pKi) (JAK1) | Tall-1 (pIC50) [1, 5] | JAK3 (pKi)-JAK1 (pKi) (JAK3; [6]) | IC50 [1, 7] [µM] |
| --- | --- | --- | --- | --- | --- | --- | --- | --- | --- | --- | --- | --- | --- | --- |
| CN1CCC[C@@H]1/C=C/C(=O)N1CC(COc2cc(-c3ccc(O)cc3)cc3[nH]ncc23)C1 [Compound 3-85] | < 0.0316 | 0.01 to 0.1 | > 0.1 | < 0.0001 | A (a value of 3 or above) | > 0.1 | – | – | – | – | – | – | – | – |
| CCC1(COc2cc(-c3ccc(O)c(F)c3)cc3[nH]ncc23)CN(C(=O)/C=C/CN(C)C)C1 [Compound 3-17] | – | – | – | – | A (a value of 3 or above) | – | A (a pIC50 value≥7.5 (IC50≤32 nM)) | D (a pKi value between 7 and 8 (Ki between 100 nM and 10 nM)) | E (a pKi value of 7 or below (Ki of 100 nM or above)) | A (a pKi value≥10 (Ki≤0.1 nM)) | E (a pKi value of 7 or below (Ki of 100 nM or above)) | – | – | – |
| CN(C)C/C=C/C(=O)N1CC(Sc2cc(-c3ccc(O)cc3)cc3[nH]ncc23)C1 [Compound 12-51] | – | – | – | – | – | – | – | D (a pKi value between 7 and 8 (Ki between 100 nM and 10 nM)) | E (a pKi value of 7 or below (Ki of 100 nM or above)) | A (a pKi value≥10 (Ki≤0.1 nM)) | D (a pKi value between 7 and 8 (Ki between 100 nM and 10 nM)) | B (a pIC50 value between 6.7 (included) and 7.5 (IC50 between 200 nM and 32 nM)) | A (a value of 3 or above) | – |
| C=CC(=O)N1C[C@@H](C)O[C@@H](C(=O)Nc2cc(-c3ccc(O)cc3)cc3[nH]ncc23)C1 [Compound 12-61] | – | > 0.1 | > 0.1 | < 0.0001 | – | > 0.1 | – | – | – | – | – | – | A (a value of 3 or above) | 0.0316 to 0.2 |
| CN(C)C/C=C/C(=O)N1CC(C)(Oc2cc(-c3ccc(O)c(Cl)c3)cc3[nH]ncc23)C1 [Compound 5-18] | – | – | – | – | – | – | – | E (a pKi value of 7 or below (Ki of 100 nM or above)) | E (a pKi value of 7 or below (Ki of 100 nM or above)) | A (a pKi value≥10 (Ki≤0.1 nM)) | E (a pKi value of 7 or below (Ki of 100 nM or above)) | A (a pIC50 value≥7.5 (IC50≤32 nM)) | A (a value of 3 or above) | – |
| CN(C)C/C=C/C(=O)N1CC[C@H](Sc2cc(-c3ccc(O)cc3)cc3[nH]ncc23)C1 [Compound 12-1] | – | 0.01 to 0.1 | > 0.1 | 0.0001 to 0.001 | – | > 0.1 | – | – | – | – | – | – | A (a value of 3 or above) | 0.0316 to 0.2 |
| C=CC(=O)N1CC(OCc2cc(-c3ccc(O)c(Cl)c3)cc3[nH]ncc23)C1 [Compound 16-2] | – | – | – | – | – | – | – | E (a pKi value of 7 or below (Ki of 100 nM or above)) | E (a pKi value of 7 or below (Ki of 100 nM or above)) | A (a pKi value≥10 (Ki≤0.1 nM)) | E (a pKi value of 7 or below (Ki of 100 nM or above)) | A (a pIC50 value≥7.5 (IC50≤32 nM)) | A (a value of 3 or above) | – |
| C=CC(=O)N1CC(C#N)(COc2nc(-c3ccc(O)c(F)c3)cc3[nH]ncc23)C1 [Compound 3-108] | – | – | – | – | A (a value of 3 or above) | – | A (a pIC50 value≥7.5 (IC50≤32 nM)) | D (a pKi value between 7 and 8 (Ki between 100 nM and 10 nM)) | E (a pKi value of 7 or below (Ki of 100 nM or above)) | A (a pKi value≥10 (Ki≤0.1 nM)) | E (a pKi value of 7 or below (Ki of 100 nM or above)) | – | – | – |
| CN(C)C/C=C/C(=O)N1CC(COc2cc(-c3cc(F)c(O)cc3F)cc3[nH]ncc23)C1 [Compound 18-3] | – | 0.01 to 0.1 | > 0.1 | < 0.0001 | – | 0.01 to 0.1 | – | – | – | – | – | – | B (a value of 2.3 to 3) | < 0.0316 |
| C=CC(=O)N1CC[C@H](Oc2nc(-c3ccc(O)c(F)c3)cc3[nH]nc(C)c23)C1 [Compound 1-36] | < 0.0316 | 0.01 to 0.1 | > 0.1 | 0.0001 to 0.001 | B (a value of 2.3 to 3) | 0.01 to 0.1 | – | – | – | – | – | – | – | – |
| C=CC(=O)N1CCO[C@@H](C(=O)Nc2nc(-c3ccc(O)c(Cl)c3)cc3[nH]ncc23)C1 [Compound 13-20] | – | – | – | – | – | – | – | E (a pKi value of 7 or below (Ki of 100 nM or above)) | E (a pKi value of 7 or below (Ki of 100 nM or above)) | B (a pKi value between 9 and 10 (Ki between 1 nM and 0.1 nM)) | E (a pKi value of 7 or below (Ki of 100 nM or above)) | B (a pIC50 value between 6.7 (included) and 7.5 (IC50 between 200 nM and 32 nM)) | B (a value of 2.3 to 3) | – |
| C=CC(=O)N1CCO[C@@H](C(=O)Nc2cc(-c3ccc(O)c(Cl)c3)nc3[nH]ncc23)C1 [Compound 13-22] | – | – | – | – | – | – | – | E (a pKi value of 7 or below (Ki of 100 nM or above)) | E (a pKi value of 7 or below (Ki of 100 nM or above)) | B (a pKi value between 9 and 10 (Ki between 1 nM and 0.1 nM)) | E (a pKi value of 7 or below (Ki of 100 nM or above)) | B (a pIC50 value between 6.7 (included) and 7.5 (IC50 between 200 nM and 32 nM)) | A (a value of 3 or above) | – |
| C=CC(=O)N1CC(F)(COc2cc(-c3ccc(O)c(Cl)c3)nc3[nH]ncc23)C1 [Compound 3-94] | – | – | – | – | A (a value of 3 or above) | – | A (a pIC50 value≥7.5 (IC50≤32 nM)) | E (a pKi value of 7 or below (Ki of 100 nM or above)) | E (a pKi value of 7 or below (Ki of 100 nM or above)) | A (a pKi value≥10 (Ki≤0.1 nM)) | E (a pKi value of 7 or below (Ki of 100 nM or above)) | – | – | – |
| CN(C)C/C=C/C(=O)N1CC[C@H](Oc2cc(-c3ccc(O)cc3)cc3[nH]ncc23)C1 [Compound 1-1] | – | 0.01 to 0.1 | > 0.1 | 0.0001 to 0.001 | A (a value of 3 or above) | > 0.1 | – | – | – | – | – | – | – | – |
